The text below walks through data of US11572590B2, “Methods for evaluating tumor cell spheroids using 3D microfluidic cell culture device” (Dana-Farber Cancer Institute, Inc., priority 2017, dated 2023).

In general, inhibition refers to the change of the read-out against control, counted positive when it falls.

The target of experiment [1] is T1, off-target kinases (Homo sapiens, UniProt Q9UBE8).
T1 sequence (Q9UBE8 1-527): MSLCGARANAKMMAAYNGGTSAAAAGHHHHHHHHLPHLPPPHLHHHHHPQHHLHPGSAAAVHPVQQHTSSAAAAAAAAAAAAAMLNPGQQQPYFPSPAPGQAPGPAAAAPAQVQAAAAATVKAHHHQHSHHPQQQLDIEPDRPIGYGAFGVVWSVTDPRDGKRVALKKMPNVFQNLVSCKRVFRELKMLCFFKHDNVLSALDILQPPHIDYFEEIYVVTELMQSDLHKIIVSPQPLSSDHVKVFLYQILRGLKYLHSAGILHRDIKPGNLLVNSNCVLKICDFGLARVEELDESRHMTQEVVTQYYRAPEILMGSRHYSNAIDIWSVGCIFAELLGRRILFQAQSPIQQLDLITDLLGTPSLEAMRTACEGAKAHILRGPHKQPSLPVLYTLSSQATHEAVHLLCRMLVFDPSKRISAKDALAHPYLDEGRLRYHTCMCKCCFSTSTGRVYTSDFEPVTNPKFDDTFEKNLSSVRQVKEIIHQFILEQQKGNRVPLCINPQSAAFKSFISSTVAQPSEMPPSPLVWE
As to the kind of experiment: SelectScreen Kinase Profiling, single point inhibition and IC50 for off-target kinases. The experiment is classed as biochemical. The note with it: NLK, LanthaScreen Binding. For orientation: TR-FRET usually uses a lanthanide donor and a delayed reading to cut background.

Experiment [2] deals with T2, off-target kinases (Homo sapiens, UniProt P29322).
T2 sequence (P29322 28-1005): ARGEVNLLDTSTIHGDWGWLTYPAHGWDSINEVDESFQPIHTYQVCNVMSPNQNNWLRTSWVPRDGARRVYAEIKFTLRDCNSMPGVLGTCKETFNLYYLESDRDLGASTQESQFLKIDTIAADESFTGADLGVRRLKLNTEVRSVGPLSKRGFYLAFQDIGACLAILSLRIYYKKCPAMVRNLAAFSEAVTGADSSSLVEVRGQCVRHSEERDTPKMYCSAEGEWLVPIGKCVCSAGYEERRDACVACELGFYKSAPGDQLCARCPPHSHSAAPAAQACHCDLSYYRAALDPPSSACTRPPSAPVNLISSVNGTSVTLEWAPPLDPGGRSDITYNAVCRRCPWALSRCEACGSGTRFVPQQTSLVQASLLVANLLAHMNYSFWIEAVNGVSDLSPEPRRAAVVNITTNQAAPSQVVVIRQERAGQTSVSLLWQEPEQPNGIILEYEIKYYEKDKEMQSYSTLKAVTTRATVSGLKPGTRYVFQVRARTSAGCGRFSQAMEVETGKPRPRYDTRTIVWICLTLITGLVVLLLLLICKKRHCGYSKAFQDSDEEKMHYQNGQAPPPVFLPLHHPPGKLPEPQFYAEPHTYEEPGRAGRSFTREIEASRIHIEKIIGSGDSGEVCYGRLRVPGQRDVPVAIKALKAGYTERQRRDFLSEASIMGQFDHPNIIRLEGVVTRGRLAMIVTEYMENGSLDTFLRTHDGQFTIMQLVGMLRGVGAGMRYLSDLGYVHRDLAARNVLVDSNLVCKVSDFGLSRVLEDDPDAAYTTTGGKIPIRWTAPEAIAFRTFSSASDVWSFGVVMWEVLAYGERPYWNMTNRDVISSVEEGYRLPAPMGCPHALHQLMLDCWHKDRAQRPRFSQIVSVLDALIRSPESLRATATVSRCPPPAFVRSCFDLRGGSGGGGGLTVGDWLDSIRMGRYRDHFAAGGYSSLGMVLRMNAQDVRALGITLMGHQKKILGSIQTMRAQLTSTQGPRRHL
The experiment is described as above. The note with it: EPHA8, ZLYTE, ATP Km app. In kind it is biochemical.

Read-outs that look alike come from different tables or passages of the source.

Turning to `N#Cc1cc(-c2ncnc(Nc3ccc(N4CCN(C5COC5)CC4)cc3)n2)ccc1OC1CCOCC1` [Compound 1, 5-(4-((4-(4-(oxetan-3-yl)piperazin-1-yl)phenyl)amino)-1,3,5-triazin-2-yl)-2-((tetrahydro-2H-pyran-4-yl)oxy)benzonitrile], the inhibition was 26% in experiment [1] (read-out: % Inhibition 1); 29% in experiment [1] (read-out: % Inhibition 2); 28% in experiment [1] (read-out: % Inhibition Avg); 11% in experiment [2] (read-out: % Inhibition 1); 7% in experiment [2] (read-out: % Inhibition 2); 9% in experiment [2] (read-out: % Inhibition Avg).
